Where two headings read alike, the source gives them in different places.
Tests used:
[1] = system: soybean seedlings cv RAS 04; conditions: in vivo
Experimental: (§1) Treated or untreated soybean seeds were allowed to dry under laminar flow for 24 h before sowing.
Plastic Box of 500 cc were filled with 250 ml extra fine (vermiculite up to 2 5 cm of the top 3 boxes per treatment. 50 ml of sterilized soybean seeds previously inoculated with Sclerotinia sclerotiorum (strain Sscl wt) grounded and mixed with XF vermiculite were spread over the 250 ml vermiculite. Same was done with the non-inoculated seeds serving as a reference for the germination test.
The inoculum was covered with 100 ml (1 cm) of XF vermiculite, and then 9 untreated or treated 9 soybean seeds were sown in each box. Seeds were covered with 150 ml (1.5 cm) of XF vermiculite. The substrate was moistened with 200 ml of tap water and then weekly once with tap water and once with a 0 5 g/l nutrients solution (Plant Prod, Ltd N P K 20 20 20 and micronutrients). The lid was punctured and then placed on each box for 5 days to maintain saturated humidity. Boxes were placed in a climatic chamber with a photoperiod of 16 h light/8 h darkness, 2424° C. day/1818° C. night and a relative humidity of 85.
Phytotoxicity assessments were carried out checking analyzing the following parameters: • a. Rate of emergence of soybean seedlings after 7 days post sowing dps. • b. General development (pictures) of the aerial part of the soybean plants after 3 weeks of incubation

[2] = system: soybean seedlings cv RAS 04; conditions: in vivo; remark: listed apart in the source
Experimental: Disinfected seed surface of the soybean cultivar RAS 04 from RAGT were treated with the laboratory seed dressing equipment called Bol Hégé with the following products: • ADM 00050 F 1 A (500 SC) at 0.002-0.005-0.01-0.02 and 0.05 L/100 Kg seeds (1-2.5-5-10-25 g ai/100 Kg seeds), without coating agent. • Vibrance duo (25+25 g ai/L of Fludioxonil and Sedaxane SC) at 0.2 L/100 Kg seeds, corresponding to 5+5 g ai/100 Kg seeds of Fludioxonil and Sedaxane • Santhal (465 g ai/L of Metalaxyl-M (Mefenoxam) EC) at 0.064 L/100 Kg seeds (3 g ai/100 Kg seeds of Metalaxyl-M=Mefenoxam) without coating agent • Sterile distilled water Untreated Control, without coating agent
as §1
Plastic Box of 500 cc were filled with 250 ml extra fine (vermiculite up to 2 5 cm of the top 3 boxes per treatment. 50 ml of sterilized soybean seeds previously inoculated with Rhizoctonia solani (strain RsolAG 2 2) grounded and mixed with XF vermiculite were spread over the 250 ml vermiculite. Same was done with the non-inoculated seeds serving as a reference for the germination test.
The inoculum was covered with 100 ml (1 cm) of XF vermiculite, and then 9 untreated or treated 9 soybean seeds were sown in each box. Seeds were covered with 150 ml (1.5 cm) of XF vermiculite. […]

For `COCC(=O)N(c1c(C)cccc1C)[C@H](C)C(=O)OC` [Metalaxyl-M], the “Seedling emergence rate (% of the total)” value [1] was 77.8 +/− 6.4a % of the total and the “Seedling emergence rate (% of the total)” value [2] was 77.8 +/− 6.4a % of the total.
